From ChEMBL document CHEMBL3822415, “Toward the Validation of Maternal Embryonic Leucine Zipper Kinase: Discovery, Optimization of Highly Potent and Selective Inhibitors, and Preliminary Biology Insight” (J Med Chem, 2016)
In brackets after ≈: the same amount, converted by molar mass.

Tests used:
[1] = biological target: T1, Maternal embryonic leucine zipper kinase (Homo sapiens, UniProt Q14680); assay: Inhibition of MELK catalytic domain (unknown origin) preincubated for 20 mins followed by addition of KinEASE STK S1 peptide as substrate in presence of 2 mM ATP measured after 20 mins by time-resolved fluorescence assay
T1 sequence (Q14680 whole entry, the tested form may be a part): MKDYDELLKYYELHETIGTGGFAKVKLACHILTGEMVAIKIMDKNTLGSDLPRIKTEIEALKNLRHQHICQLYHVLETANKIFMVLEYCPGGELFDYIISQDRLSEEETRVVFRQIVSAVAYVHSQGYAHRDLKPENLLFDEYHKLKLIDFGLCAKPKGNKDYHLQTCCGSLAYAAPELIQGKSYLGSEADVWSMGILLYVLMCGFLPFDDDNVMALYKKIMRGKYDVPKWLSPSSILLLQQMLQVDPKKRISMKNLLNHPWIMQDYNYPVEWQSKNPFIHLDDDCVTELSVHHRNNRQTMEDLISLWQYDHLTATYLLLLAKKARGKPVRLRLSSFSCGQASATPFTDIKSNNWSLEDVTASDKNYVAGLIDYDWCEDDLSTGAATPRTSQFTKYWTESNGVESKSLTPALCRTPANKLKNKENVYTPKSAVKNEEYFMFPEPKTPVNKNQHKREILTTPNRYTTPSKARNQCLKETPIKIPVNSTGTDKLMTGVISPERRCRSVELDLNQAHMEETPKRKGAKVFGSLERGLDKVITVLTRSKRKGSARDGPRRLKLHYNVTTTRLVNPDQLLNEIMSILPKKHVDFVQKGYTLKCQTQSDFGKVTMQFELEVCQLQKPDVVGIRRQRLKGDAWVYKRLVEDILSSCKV

[2] = biological target: T1, Maternal embryonic leucine zipper kinase; assay: Inhibition of MELK catalytic domain (unknown origin) preincubated for 20 mins followed by addition of KinEASE STK S1 peptide as substrate in presence of 20 uM ATP measured after 20 mins by time-resolved fluorescence assay
[3] = biological target: Mitogen-activated protein kinase kinase kinase kinase 4 (Homo sapiens, UniProt O95819); assay: Inhibition of MAP4K4 (unknown origin)
Chain of Mitogen-activated protein kinase kinase kinase kinase 4 (O95819 whole entry): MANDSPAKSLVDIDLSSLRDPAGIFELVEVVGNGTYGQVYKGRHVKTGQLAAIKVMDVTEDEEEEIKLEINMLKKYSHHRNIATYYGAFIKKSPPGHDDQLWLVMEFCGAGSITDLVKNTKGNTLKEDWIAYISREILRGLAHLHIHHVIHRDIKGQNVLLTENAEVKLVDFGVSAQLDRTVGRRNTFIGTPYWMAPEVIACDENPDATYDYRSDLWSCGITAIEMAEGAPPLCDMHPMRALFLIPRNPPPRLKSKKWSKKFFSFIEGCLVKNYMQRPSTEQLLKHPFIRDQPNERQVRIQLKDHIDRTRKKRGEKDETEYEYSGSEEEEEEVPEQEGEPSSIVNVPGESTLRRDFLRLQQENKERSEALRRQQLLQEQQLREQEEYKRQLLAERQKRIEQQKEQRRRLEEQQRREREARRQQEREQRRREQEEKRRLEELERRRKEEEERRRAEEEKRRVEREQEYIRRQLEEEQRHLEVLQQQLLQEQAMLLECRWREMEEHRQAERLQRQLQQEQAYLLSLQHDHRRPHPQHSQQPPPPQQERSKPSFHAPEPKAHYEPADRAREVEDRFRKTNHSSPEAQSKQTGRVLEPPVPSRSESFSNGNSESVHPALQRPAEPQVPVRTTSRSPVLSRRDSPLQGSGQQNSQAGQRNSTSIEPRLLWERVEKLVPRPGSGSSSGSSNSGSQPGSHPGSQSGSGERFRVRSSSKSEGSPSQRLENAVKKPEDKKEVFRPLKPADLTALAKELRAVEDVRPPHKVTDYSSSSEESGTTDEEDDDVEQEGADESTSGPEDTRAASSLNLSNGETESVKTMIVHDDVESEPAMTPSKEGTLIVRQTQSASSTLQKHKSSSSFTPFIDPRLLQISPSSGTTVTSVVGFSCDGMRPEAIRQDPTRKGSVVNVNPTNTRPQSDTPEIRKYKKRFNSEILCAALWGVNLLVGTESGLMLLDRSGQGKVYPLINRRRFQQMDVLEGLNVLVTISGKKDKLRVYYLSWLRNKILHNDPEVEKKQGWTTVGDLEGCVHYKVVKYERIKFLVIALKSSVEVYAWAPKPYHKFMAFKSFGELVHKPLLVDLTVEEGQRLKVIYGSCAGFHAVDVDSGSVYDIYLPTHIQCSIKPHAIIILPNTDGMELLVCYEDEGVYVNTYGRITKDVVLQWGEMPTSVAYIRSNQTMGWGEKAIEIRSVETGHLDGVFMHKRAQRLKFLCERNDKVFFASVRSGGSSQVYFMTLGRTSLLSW

[4] = biological target: T2, Receptor-type tyrosine-protein kinase FLT3 (Homo sapiens, UniProt P36888); assay: Inhibition of FLT3 (unknown origin)
T2 sequence (P36888 whole entry): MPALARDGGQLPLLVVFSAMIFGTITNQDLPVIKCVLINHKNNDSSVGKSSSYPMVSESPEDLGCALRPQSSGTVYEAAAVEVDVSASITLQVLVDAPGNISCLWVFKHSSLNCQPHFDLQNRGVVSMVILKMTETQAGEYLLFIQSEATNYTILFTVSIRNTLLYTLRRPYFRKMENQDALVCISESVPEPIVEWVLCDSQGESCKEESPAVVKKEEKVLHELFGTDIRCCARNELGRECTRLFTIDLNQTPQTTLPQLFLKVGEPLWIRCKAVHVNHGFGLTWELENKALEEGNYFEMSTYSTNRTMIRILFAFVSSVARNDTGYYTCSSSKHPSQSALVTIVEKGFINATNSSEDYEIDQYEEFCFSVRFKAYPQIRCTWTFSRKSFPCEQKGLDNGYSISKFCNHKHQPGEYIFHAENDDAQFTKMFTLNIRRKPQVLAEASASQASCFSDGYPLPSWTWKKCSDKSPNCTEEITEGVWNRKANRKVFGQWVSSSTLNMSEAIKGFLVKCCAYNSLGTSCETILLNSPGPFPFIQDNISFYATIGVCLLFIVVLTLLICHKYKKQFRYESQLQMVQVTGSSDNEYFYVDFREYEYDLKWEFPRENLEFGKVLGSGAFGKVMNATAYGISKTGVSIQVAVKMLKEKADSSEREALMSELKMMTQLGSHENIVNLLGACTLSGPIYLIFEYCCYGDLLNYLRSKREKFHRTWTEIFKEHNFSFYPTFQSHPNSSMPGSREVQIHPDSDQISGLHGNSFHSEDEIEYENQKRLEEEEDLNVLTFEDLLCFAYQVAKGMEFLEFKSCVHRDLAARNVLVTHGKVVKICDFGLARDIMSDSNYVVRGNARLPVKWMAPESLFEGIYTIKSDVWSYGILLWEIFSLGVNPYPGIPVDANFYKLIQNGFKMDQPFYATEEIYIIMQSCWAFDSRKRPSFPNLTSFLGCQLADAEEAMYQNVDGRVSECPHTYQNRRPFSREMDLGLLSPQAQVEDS

[5] = biological target: T3, Platelet-derived growth factor receptor alpha (Homo sapiens, UniProt P16234); assay: Inhibition of PDGFR-alpha (unknown origin)
T3 sequence (P16234 whole entry): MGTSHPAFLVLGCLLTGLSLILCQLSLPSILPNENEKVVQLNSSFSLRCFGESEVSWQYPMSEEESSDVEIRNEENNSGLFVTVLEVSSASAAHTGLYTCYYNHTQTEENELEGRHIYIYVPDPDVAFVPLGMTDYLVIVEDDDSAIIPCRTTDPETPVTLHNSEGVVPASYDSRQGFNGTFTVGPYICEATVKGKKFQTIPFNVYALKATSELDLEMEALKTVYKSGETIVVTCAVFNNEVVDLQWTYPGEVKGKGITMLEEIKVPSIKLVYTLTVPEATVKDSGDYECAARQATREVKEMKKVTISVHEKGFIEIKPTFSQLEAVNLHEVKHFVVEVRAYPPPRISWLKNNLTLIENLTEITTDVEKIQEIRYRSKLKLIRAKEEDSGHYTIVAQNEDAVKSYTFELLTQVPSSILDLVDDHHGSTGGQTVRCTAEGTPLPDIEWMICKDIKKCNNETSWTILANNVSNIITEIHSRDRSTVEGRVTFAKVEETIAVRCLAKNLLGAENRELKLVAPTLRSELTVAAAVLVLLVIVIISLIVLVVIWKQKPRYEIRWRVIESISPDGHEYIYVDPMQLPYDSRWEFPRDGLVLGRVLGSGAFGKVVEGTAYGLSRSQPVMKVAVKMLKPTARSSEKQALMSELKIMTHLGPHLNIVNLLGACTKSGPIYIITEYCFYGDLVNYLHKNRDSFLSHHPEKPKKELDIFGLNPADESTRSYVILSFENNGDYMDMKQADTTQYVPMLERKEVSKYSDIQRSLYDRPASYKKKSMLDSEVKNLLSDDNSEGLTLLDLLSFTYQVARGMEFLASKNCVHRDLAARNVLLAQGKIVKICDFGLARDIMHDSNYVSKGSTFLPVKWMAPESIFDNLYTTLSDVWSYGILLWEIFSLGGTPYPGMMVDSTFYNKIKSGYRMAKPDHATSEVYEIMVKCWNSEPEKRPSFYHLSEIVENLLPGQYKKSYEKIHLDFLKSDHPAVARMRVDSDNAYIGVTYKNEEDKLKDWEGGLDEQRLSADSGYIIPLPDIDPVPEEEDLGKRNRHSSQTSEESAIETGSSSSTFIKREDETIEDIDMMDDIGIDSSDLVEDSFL

[6] = test system: MCF7; assay: Antiproliferative activity against MELK-independent ER-positive human MCF7 cells assessed as reduction in cell viability after 7 days by CellTiter-Glo assay; settings: MCF7, 168 h
[7] = test system: MDA-MB-468; assay: Antiproliferative activity against MELK-dependent human MDA-MB-468 cells assessed as reduction in cell viability after 7 days by CellTiter-Glo assay; settings: MDA-MB-468, 168 h
[8] = Cmax in C57BL/6 mouse at 30 mg/kg, sc by LC-MS/MS analysis; type: ADME, organism-based; parameters: dose 30 mg/kg, route subcutaneous; settings: in vivo
[9] = biological target: T1, Maternal embryonic leucine zipper kinase; assay: Binding affinity to MELK (unknown origin) expressed in Escherichia coli by SPR analysis
[10] = Cmax in C57BL/6 mouse at 10 mg/kg, po by LC-MS/MS analysis; type: ADME, organism-based; parameters: dose 10 mg/kg, route oral; settings: in vivo
[11] = biological target: T1, Maternal embryonic leucine zipper kinase; assay: Inhibition of full-length MELK (unknown origin) preincubated for 20 mins followed by addition of KinEASE STK S1 peptide as substrate in presence of 20 uM ATP measured after 20 mins by time-resolved fluorescence assay
[12] = Extraction ratio in mouse microsomes; type: ADME, Microsome
[13] = biological target: Mast/stem cell growth factor receptor Kit (Homo sapiens, UniProt P10721, A829P); assay: Inhibition of partial-length human KIT A829P mutant expressed in mammalian expression system by KINOMEscan assay
Chain of Mast/stem cell growth factor receptor Kit (P10721 26-976 A829P limits assumed): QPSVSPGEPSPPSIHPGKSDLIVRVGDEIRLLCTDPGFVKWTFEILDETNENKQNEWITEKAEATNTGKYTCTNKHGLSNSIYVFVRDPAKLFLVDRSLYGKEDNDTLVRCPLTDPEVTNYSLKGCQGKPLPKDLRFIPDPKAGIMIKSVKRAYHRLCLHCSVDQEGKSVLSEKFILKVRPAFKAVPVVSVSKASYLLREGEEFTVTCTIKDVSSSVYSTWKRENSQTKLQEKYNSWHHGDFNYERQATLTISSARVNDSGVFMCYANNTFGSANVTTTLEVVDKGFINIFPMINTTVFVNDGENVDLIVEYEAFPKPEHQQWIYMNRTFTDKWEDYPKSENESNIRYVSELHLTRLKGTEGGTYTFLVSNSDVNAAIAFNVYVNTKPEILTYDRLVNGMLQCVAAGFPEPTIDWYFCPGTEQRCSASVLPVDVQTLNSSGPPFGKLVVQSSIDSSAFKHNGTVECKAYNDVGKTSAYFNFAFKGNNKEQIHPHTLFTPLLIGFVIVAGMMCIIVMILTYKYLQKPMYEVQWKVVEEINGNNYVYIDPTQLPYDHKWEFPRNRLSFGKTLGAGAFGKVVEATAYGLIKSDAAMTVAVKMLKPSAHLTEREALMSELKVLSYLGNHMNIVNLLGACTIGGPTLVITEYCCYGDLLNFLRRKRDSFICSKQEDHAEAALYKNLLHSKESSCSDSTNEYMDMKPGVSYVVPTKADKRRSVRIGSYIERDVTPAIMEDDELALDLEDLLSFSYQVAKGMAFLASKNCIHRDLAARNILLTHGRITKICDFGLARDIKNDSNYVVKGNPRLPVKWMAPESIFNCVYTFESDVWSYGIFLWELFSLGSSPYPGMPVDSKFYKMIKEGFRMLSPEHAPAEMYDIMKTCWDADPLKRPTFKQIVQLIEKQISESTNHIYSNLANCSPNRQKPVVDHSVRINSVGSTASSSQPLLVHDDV

[14] = Tmax in C57BL/6 mouse at 10 mg/kg, po by LC-MS/MS analysis; type: ADME, organism-based; settings: in vivo
[15] = Oral bioavailability in C57BL/6 mouse at 10 mg/kg by LC-MS/MS analysis; type: ADME, organism-based; settings: in vivo
[16] = Half life of the compound; type: physicochemical
[17] = test system: Plasma; assay: Drug uptake in plasma of athymic nude mouse at 120 mg/kg, sc bid; type: ADME, organism-based; settings: in vivo
[18] = Solubility of the compound at pH 6.8; type: physicochemical; settings: buffer
[19] = AUC (0 to 7 hrs) in C57BL/6 mouse at 30 mg/kg, sc by LC-MS/MS analysis; type: ADME, organism-based; parameters: dose 30 mg/kg, time < 7 hr, route subcutaneous; settings: in vivo
[20] = Clearance in C57BL/6 mouse at 1 mg/kg, iv by LC-MS/MS analysis; type: ADME, organism-based; settings: in vivo
[21] = Volume of distribution at steady state in C57BL/6 mouse at 1 mg/kg, iv by LC-MS/MS analysis; type: ADME, organism-based; settings: in vivo, read-out: Vdss
[22] = biological target: T3, Platelet-derived growth factor receptor alpha; assay: Inhibition of partial-length human wild type PDGFR-alpha expressed in mammalian expression system by KINOMEscan assay
[23] = AUC (0 to 7 hrs) in C57BL/6 mouse at 1 mg/kg, iv by LC-MS/MS analysis; type: ADME, organism-based; parameters: time < 7 hr, dose 1 mg/kg, route intravenous; settings: in vivo
[24] = Apparent permeability across apical to basolateral side in human Caco2 cells; type: ADME, cell-based; settings: Caco-2
[25] = biological target: T4, Serine/threonine-protein kinase haspin (Homo sapiens, UniProt Q8TF76); assay: Inhibition of partial-length human wild type HASPIN expressed in mammalian expression system by KINOMEscan assay
T4 sequence (Q8TF76 whole entry): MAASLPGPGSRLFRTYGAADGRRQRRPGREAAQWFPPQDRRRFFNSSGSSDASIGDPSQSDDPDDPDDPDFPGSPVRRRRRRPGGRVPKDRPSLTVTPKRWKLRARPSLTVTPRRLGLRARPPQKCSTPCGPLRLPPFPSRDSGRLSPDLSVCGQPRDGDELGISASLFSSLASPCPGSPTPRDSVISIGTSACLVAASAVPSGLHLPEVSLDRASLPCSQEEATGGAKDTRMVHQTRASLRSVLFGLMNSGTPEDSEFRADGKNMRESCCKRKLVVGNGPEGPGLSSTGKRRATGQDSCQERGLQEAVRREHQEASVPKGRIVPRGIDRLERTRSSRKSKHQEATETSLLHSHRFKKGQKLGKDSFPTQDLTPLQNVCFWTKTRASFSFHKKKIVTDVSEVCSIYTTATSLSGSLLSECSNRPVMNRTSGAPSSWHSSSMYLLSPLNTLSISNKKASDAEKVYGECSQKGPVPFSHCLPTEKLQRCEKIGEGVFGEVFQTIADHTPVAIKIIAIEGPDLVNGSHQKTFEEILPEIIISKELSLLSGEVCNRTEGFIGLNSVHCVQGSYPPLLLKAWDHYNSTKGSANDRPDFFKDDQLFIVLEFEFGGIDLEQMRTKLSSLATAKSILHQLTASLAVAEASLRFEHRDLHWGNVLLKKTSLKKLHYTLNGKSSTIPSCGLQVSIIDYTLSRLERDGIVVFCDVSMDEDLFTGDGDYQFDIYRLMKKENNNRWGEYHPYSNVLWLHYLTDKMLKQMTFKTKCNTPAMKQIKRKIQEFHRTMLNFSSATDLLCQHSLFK

[26] = Tmax in C57BL/6 mouse at 30 mg/kg, sc by LC-MS/MS analysis; type: ADME, organism-based; settings: in vivo
[27] = test system: Plasma; assay: Metabolic stability in mouse plasma measured after 4 hrs; type: ADME, cell-free
[28] = AUC (0 to 7 hrs) in C57BL/6 mouse at 10 mg/kg, po by LC-MS/MS analysis; type: ADME, organism-based; parameters: time < 7 hr, dose 10 mg/kg, route oral; settings: in vivo
[29] = test system: Plasma; assay: Drug uptake in plasma of athymic nude mouse at 120 to 240 mg/kg, sc qd; type: ADME, organism-based; settings: in vivo
[30] = biological target: Receptor-type tyrosine-protein kinase FLT3 (Homo sapiens, UniProt P36888, ITD); assay: Inhibition of partial-length human FLT3 ITD mutant expressed in bacterial expression system by KINOMEscan assay
[31] = Cmax in C57BL/6 mouse at 5 mg/kg, po by LC-MS/MS analysis; type: ADME, organism-based; parameters: dose 5 mg/kg, route oral; settings: in vivo
[32] = AUC (0 to 7 hrs) in C57BL/6 mouse at 5 mg/kg, po by LC-MS/MS analysis; type: ADME, organism-based; parameters: dose 5 mg/kg, time < 7 hr, route oral; settings: in vivo
[33] = Tmax in C57BL/6 mouse at 5 mg/kg, po by LC-MS/MS analysis; type: ADME, organism-based; settings: in vivo
[34] = Oral bioavailability in C57BL/6 mouse at 5 mg/kg by LC-MS/MS analysis; type: ADME, organism-based; settings: in vivo

Structure (SMILES): CN1CCN(c2ccc(-n3cc(-c4ccncc4OC4CCNCC4)cn3)cc2)CC1
- IC50 [1]: 260 nM
- IC50 [2]: 6 nM

Structure (SMILES): CS(=O)(=O)c1ccc(-n2cc(-c3ccccc3)cn2)cc1
- IC50 [2]: > 20000 nM

Structure (SMILES): Fc1ccccc1-n1cc(-c2ccncc2OCC2CCNCC2)cn1
- IC50 [2]: 13 nM

Structure (SMILES): c1cc(-c2cnn(-c3ccc(N4CCOCC4)cc3)c2)c(OCC2CCNCC2)cn1
- IC50 [1]: 210 nM
- IC50 [2]: 6 nM

Structure (SMILES): O=C(NCc1ccccn1)c1ccc(-n2cc(-c3ccncc3)cn2)cc1
- IC50 [1]: 18800 nM
- IC50 [2]: 180 nM
- IC50 [3]: < 5000 nM
- IC50 [4]: < 5000 nM
- IC50 [5]: < 5000 nM

Structure (SMILES): CN1CCN(c2ccc(-n3cc(-c4ccncc4)cn3)cc2)CC1
- IC50 [1]: 5000 nM
- IC50 [2]: 80 nM

Structure (SMILES): COc1cnccc1-c1cnn(-c2ccc(N3CCN(C)CC3)cc2)c1
- IC50 [2]: 64 nM

Structure (SMILES): CN1CCN(c2ccc(-n3cc(-c4ccncc4OC4CCCCC4)cn3)cc2)CC1
- IC50 [1]: 150 nM
- IC50 [2]: 4 nM

Structure (SMILES): CC(C)COc1cnccc1-c1cnn(-c2ccc(N3CCN(C)CC3)cc2)c1
- IC50 [1]: 410 nM
- IC50 [2]: 9 nM

Structure (SMILES): CS(=O)(=O)c1ccc(-n2cc(-c3ccncc3)cn2)cc1
- IC50 [2]: 400 nM

Structure (SMILES): CN1CCN(c2ccc(-n3cc(-c4ccncc4OC[C@H]4CC[C@H](N)CC4)cn3)cc2)CC1
- IC50 [1]: 57 nM
- IC50 [2]: 1 nM
- IC50 [6]: 1200 nM
- IC50 [7]: 60 nM

Structure (SMILES): CN1CCN(c2ccc(-n3cc(-c4ccncc4OCC4CCNCC4)cn3)cc2)CC1
- IC50 [1]: 140 nM
- Cmax [8]: 6560 nM
- IC50 [2]: 2 nM
- IC50 [9]: 2 nM
- Cmax [10]: 34 nM
- IC50 [11]: 5 nM
- hepatic extraction ratio [12]: 0.75
- IC50 [13]: > 10000 nM
- Tmax [14]: 30 min
- bioavailability [15]: 3.6%
- half-life [16]: 1 min
- Drug uptake [17]: Active
- solubility [18]: 220 µg/mL (≈ 509 µM)
- IC50 [6]: 3680 nM
- AUC(0-t) at 7 h [19]: 18.9 µM·h
- clearance [20]: 114 mL/min/kg
- Vd [21]: 40.8 L/kg
- IC50 [22]: 420 nM
- AUC(0-t) at 7 h [23]: 0.23 µM·h
- IC50 [7]: 110 nM
- Papp A→B [24]: 14 ×10⁻⁶ cm/s
- IC50 [25]: 190 nM
- Tmax [26]: 24 min
- Stability [27]: Stable
- AUC(0-t) at 7 h [28]: 0.0832 µM·h
- Drug uptake [29]: Active
- IC50 [30]: 180 nM

Structure (SMILES): c1ccc(-n2cc(-c3ccncc3OCC3CCNCC3)cn2)cc1
- Cmax [31]: 1030 nM
- IC50 [2]: 36 nM
- AUC(0-t) at 7 h [32]: 3.44 µM·h
- Tmax [33]: 102 min
- bioavailability [34]: 43%

Structure (SMILES): CN1CCN(c2ccc(-n3cc(-c4ccncc4OCc4ccncc4)cn3)cc2)CC1
- IC50 [1]: 1440 nM
- IC50 [2]: 25 nM

Structure (SMILES): CN1CCN(c2ccc(-n3cc(-c4ccncc4F)cn3)cc2)CC1
- IC50 [1]: 5000 nM
- IC50 [2]: 70 nM

Structure (SMILES): CS(=O)(=O)c1ccc(-n2cc(-c3ccc(O)cc3)cn2)cc1
- IC50 [2]: 520 nM

Structure (SMILES): CN1CCN(c2ccc(-c3cc(-c4ccccc4)n[nH]3)cc2)CC1
- IC50 [2]: 670 nM

Structure (SMILES): Fc1cc(N2CCOCC2)ccc1-n1cc(-c2ccncc2OCC2CCNCC2)cn1
- IC50 [2]: 0.3 nM
